{"source": "paper PMC9457736", "about": "“Dual Inhibition of HIV-1 and Cathepsin L Proteases by Sarcandra glabra” (Molecules, 2022)", "key": {"[1]": {"biological_target": "T1, human recombinant Cathepsin L protease (Homo sapiens, UniProt P07711)", "T1 construct": "purchased AnaSpec Inc. SensoLyte 520 Cathepsin L Protease Assay Kit, Lot#: AS72218-1010", "T1 sequence (P07711 114-333)": "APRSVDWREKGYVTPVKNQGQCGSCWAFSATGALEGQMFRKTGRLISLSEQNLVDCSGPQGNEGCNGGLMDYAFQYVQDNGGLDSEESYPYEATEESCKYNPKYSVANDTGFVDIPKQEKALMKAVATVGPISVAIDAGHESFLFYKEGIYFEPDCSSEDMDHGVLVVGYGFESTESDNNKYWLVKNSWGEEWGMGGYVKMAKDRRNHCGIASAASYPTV", "test": "FRET assay of Cathepsin L protease inhibition (SensoLyte 520 kit)", "assay_type": "biochemical", "settings": "for inhibition at 10 µg/mL: read-out: CatL PR Inhibition (%) ± SD at 0.01 (mg/mL)", "description": "(§1) Enzyme activities of HIV-1, Cathepsin L, and renin proteases were determined by a FRET assay, following the manufacturer’s protocol. Briefly, the HIV-1 PR activity was assayed using 384-well microplates with a well volume of 120 μL (Corning Incorporated, Corning, NY, USA). Then, 8 μL of recombinant HIV-1 protease (wild type, NCBI accessiob: NC-001802, final concentration: 0.01 mg/mL (80 ng/well), AnaSpec Inc., Fremont, San Jose, CA, USA) was mixed with 2 μL of the test compounds (0.01~1.0 mg/mL). Reactions were then initiated by adding 10 μL of the HIV protease substrate (50X dilution with assay buffer). Fluorescence was measured using a EX/Em = 490/520 nm filter module on a Synergy II microplate reader. To evaluate the inhibitory activity of the test compounds towards Cathepsin L protease, fluorimetric SensoLyte^TM 520 Cathepsin L Protease Assay Kit (Lot#: AS72218-1010, AnaSpec Inc. San Jose, CA, USA) was used. Briefly, 2 μL test compound solutions (0.01~1.0 mg/mL) and 8 µL of human recombinant Cathepsin L protease (200× dilution with DTT-containing assay buffer, final concentration: 0.5 µg/mL) were added in the microplate wells. The microplate was pre-incubated at room temperature for 10 min. The enzymatic reaction was subsequently initiated by adding 10 μL of freshly diluted Cathepsin L substrate solution (100× dilution with assay buffer, final concentration: 0.01 mM) into each well. The microplate was gently shaken for 30 s before being incubated at 37 °C for 30 min. Fluorescence was measured at an emission of 520 nm and excitation of 490 nm. A Cathepsin L inhibitor, (100× dilution with assay buffer, final concentration: 1 µM) was used as a positive control. IC50 values of tested compounds were calculated by Microsoft Office Excel software using three different concentrations."}, "[2]": {"biological_target": "T2, recombinant HIV-1 protease (wild type) (Human immunodeficiency virus type 1 group M subtype B, UniProt P04585)", "T2 construct": "8 μL of recombinant HIV-1 protease (wild type); purchased AnaSpec Inc", "test": "FRET assay of HIV-1 protease inhibition", "assay_type": "biochemical", "settings": "for inhibition at 1000 µg/mL / HIV-1 PR Inhibition (%) ± SD at 1.0 (mg/mL): 1.0 mg/mL; for inhibition at 1000 µg/mL / HIV-1 PR Inhibition (%) ± SD at 1.0 (mg/mL) / IC50 ± RSD% HIV-1 PR: n = 3; for inhibition at 1000 µg/mL: read-out: HIV-1 PR Inhibition (%) ± SD at 1.0 (mg/mL)", "description": "as §1, with “Then, 8 μL of recombinant HIV-1 protease (wild type, NCBI accessiob: NC-001802, final concentration: 0.01 mg/mL (80 ng/well), AnaSpec Inc., Fremont, San Jose, CA, USA) was mixed with 2 μL of the test compounds (0.01~1.0 mg/mL).” left out, “To evaluate the inhibitory activity of the test compounds towards Cathepsin L protease, fluorimetric SensoLyte^TM 520 Cathepsin L Protease Assay Kit (Lot#: AS72218-1010, AnaSpec Inc. San Jose, CA, USA) was used.” left out"}}, "note": "Like-named read-outs stand apart in the source and are kept apart here."}
{"smiles": "C[N+](C)(C)CC(=O)O", "note": "[Compound 1, Betaine]", "values": [{"measurement": "inhibition at 10 µg/mL", "setting": "[1]; 0.01 mg/mL, n = 3", "value": "-15.5 ± 5.76", "unit": "%"}, {"measurement": "inhibition at 1000 µg/mL", "setting": "[2]", "value": "8.95 ± 4.61", "unit": "%"}]}
{"smiles": "C[C@@H]1CC[C@H]2[C@@H](C)C(=O)O[C@@H]3O[C@@]4(C)CC[C@@H]1[C@]32OO4", "note": "[Compound 14, Artemisinin]", "values": [{"measurement": "inhibition at 10 µg/mL", "setting": "[1]; 0.01 mg/mL, n = 3", "value": "-1.1 ± 0.52", "unit": "%"}, {"measurement": "HIV-1 PR Inhibition (%) ± SD at 1.0 (mg/mL)", "setting": "[2]", "value": "50.8 ± 0.58", "unit": "%"}, {"measurement": "inhibition at 1000 µg/mL", "setting": "[2]", "value": "> 50", "unit": "%"}, {"measurement": "IC50 ± RSD% HIV-1 PR", "setting": "[2]", "value": "0.95 ± 2.77", "unit": "%"}]}
{"smiles": "O=C(O)c1ccc(O)c(O)c1", "note": "[Compound 4, Protocatechuic acid]", "values": [{"measurement": "inhibition at 10 µg/mL", "setting": "[1]", "value": "42.1 ± 2.25", "unit": "%"}, {"measurement": "inhibition at 1000 µg/mL", "setting": "[2]", "value": "47.9 ± 1.82", "unit": "%"}]}
{"smiles": "O=C(O)/C=C/c1ccc(O)c(O)c1", "note": "[Compound 7, Caffeic acid]", "values": [{"measurement": "inhibition at 10 µg/mL", "setting": "[1]; 0.01 mg/mL, n = 3", "value": "32.1 ± 1.68", "unit": "%"}, {"measurement": "IC50", "setting": "[2]", "value": 2660, "unit": "µM"}, {"measurement": "HIV-1 PR Inhibition (%) ± SD at 1.0 (mg/mL)", "setting": "[2]", "value": "65.9 ± 0.00", "unit": "%"}, {"measurement": "inhibition at 1000 µg/mL", "setting": "[2]", "value": "> 50", "unit": "%"}, {"measurement": "IC50 ± RSD% HIV-1 PR", "setting": "[2]", "value": "0.48 ± 0.124", "unit": "%"}]}
{"smiles": "O=C(O)[C@]1(O)C[C@@H](O)[C@@H](O)[C@H](O)C1", "note": "[Compound 2, D-(-)-Quinic acid]", "values": [{"measurement": "inhibition of CatL PR (in words)", "setting": "[1]", "value": "no inhibition"}, {"measurement": "inhibition at 10 µg/mL", "setting": "[1]", "value": "-0.32 ± 8.61", "unit": "%"}, {"measurement": "inhibition at 1000 µg/mL", "setting": "[2]", "value": "-20.1 ± 2.61", "unit": "%"}]}
{"smiles": "COc1cc2ccc(=O)oc2c(O)c1O", "note": "[Compound 8, Fraxetin]", "values": [{"measurement": "inhibition at 10 µg/mL", "setting": "[1]; 0.01 mg/mL, n = 3", "value": "15 ± 5.25", "unit": "%"}, {"measurement": "inhibition at 1000 µg/mL", "setting": "[2]", "value": "24.1 ± 6.7", "unit": "%"}]}
{"smiles": "O=c1ccc2ccc(O)cc2o1", "note": "[Compound 6, 7-Hydroxycoumarine]", "values": [{"measurement": "inhibition at 10 µg/mL", "setting": "[1]; 0.01 mg/mL, n = 3", "value": "22.6 ± 0.53", "unit": "%"}, {"measurement": "inhibition at 1000 µg/mL", "setting": "[2]", "value": "28.9 ± 4.41", "unit": "%"}]}
{"smiles": "O=C(/C=C/c1ccc(O)c(O)c1)O[C@H](Cc1ccc(O)c(O)c1)C(=O)O", "note": "[Compound 12, Rosmarinic acid]", "values": [{"measurement": "inhibition at 10 µg/mL", "setting": "[1]; 0.01 mg/mL, n = 3", "value": "19.2 ± 1.7", "unit": "%"}]}
{"smiles": "COc1cc2ccc(=O)oc2c(OC)c1O", "note": "[Compound 10, Isofraxidin]", "values": [{"measurement": "inhibition at 10 µg/mL", "setting": "[1]; 0.01 mg/mL, n = 3", "value": "27 ± 2.37", "unit": "%"}, {"measurement": "inhibition at 1000 µg/mL", "setting": "[2]", "value": "-2.09 ± 8.57", "unit": "%"}]}
{"smiles": "COc1ccc(C(C)=O)c(O)c1", "note": "[Compound 3, Paeonol]", "values": [{"measurement": "inhibition at 10 µg/mL", "setting": "[1]; 0.01 mg/mL, n = 3", "value": "-15 ± 0.56", "unit": "%"}, {"measurement": "inhibition at 1000 µg/mL", "setting": "[2]", "value": "-12.6 ± 0.26", "unit": "%"}]}
{"smiles": "C[C@@H]1O[C@@H](O[C@H]2C(=O)c3c(O)cc(O)cc3O[C@@H]2c2ccc(O)c(O)c2)[C@H](O)[C@H](O)[C@H]1O", "note": "[Compound 9, Astilbin]", "values": [{"measurement": "inhibition at 10 µg/mL", "setting": "[1]; 0.01 mg/mL, n = 3", "value": "-24.7 ± 8.14", "unit": "%"}, {"measurement": "HIV-1 PR Inhibition (%) ± SD at 1.0 (mg/mL)", "setting": "[2]", "value": "68.4 ± 5.45", "unit": "%"}, {"measurement": "inhibition at 1000 µg/mL", "setting": "[2]", "value": "> 50", "unit": "%"}, {"measurement": "IC50 ± RSD% HIV-1 PR", "setting": "[2]", "value": "0.54 ± 4.34", "unit": "%"}]}
{"smiles": "O=C(C=Cc1ccc(O)c(O)c1)OC1CC(O)(C(=O)O)CC(O)C1OC(=O)C=Cc1ccc(O)c(O)c1", "note": "(stereo not shown) [Compound 11, 3,4-Dicaffeoylquinic acid]", "values": [{"measurement": "inhibition of CatL PR (in words)", "setting": "[1]", "value": "no inhibition"}, {"measurement": "inhibition at 10 µg/mL", "setting": "[1]; 0.01 mg/mL, n = 3", "value": "-31.3 ± 6.24", "unit": "%"}, {"measurement": "IC50", "setting": "[2]", "value": 252, "unit": "µM"}, {"measurement": "HIV-1 PR Inhibition (%) ± SD at 1.0 (mg/mL)", "setting": "[2]", "value": "86.1 ± 3.92", "unit": "%"}, {"measurement": "HIV-1 PR Inhibition (%) ± SD at 1.0 (mg/mL)", "setting": "[2]; listed as 3,4-dicaffeoylquinic acid", "value": "more than 50%"}, {"measurement": "IC50 ± RSD% HIV-1 PR", "setting": "[2]", "value": "0.13 ± 2.84", "unit": "%"}]}
{"smiles": "COc1cc(O)cc2c1C(=O)C[C@@H](c1ccccc1)O2", "note": "[Compound 13, Alpinetin]", "values": [{"measurement": "inhibition at 10 µg/mL", "setting": "[1]; 0.01 mg/mL, n = 3", "value": "11.9 ± 8.99", "unit": "%"}, {"measurement": "HIV-1 PR Inhibition (%) ± SD at 1.0 (mg/mL)", "setting": "[2]", "value": "62.3 ± 0.96", "unit": "%"}, {"measurement": "inhibition at 1000 µg/mL", "setting": "[2]", "value": "> 50", "unit": "%"}, {"measurement": "IC50 ± RSD% HIV-1 PR", "setting": "[2]", "value": "0.62 ± 3.44", "unit": "%"}]}
{"smiles": "O=C(/C=C/c1ccc(O)c(O)c1)O[C@@H]1C[C@](O)(C(=O)O)C[C@@H](O)[C@H]1O", "note": "[Compound 5, Chlorogenic acid]", "values": [{"measurement": "inhibition at 10 µg/mL", "setting": "[1]; 0.01 mg/mL, n = 3", "value": "40.8 ± 2.54", "unit": "%"}]}
